SMILES strings stand for the structures. Where “and” joins values, the source holds several entries; their conditions need not be identical. Identical values can stand only once. Inconclusive results and toxic doses are left out.

Consider 24 compounds from PubChem BioAssay AID256 (DTP/NCI, 2004).

For the experiment, the system named is CD2F1 mice, L1210 leukemia ip, survival T/C. The experiment is described as follows: NCI In Vivo Anticancer Drug Screen. Data for tumor model L1210 Leukemia (intraperitoneal) in CD2F1 (CDF1) mice. As to conditions: higher = longer survival. The method, boiled down:
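Mice carrying a transplanted tumor received test compound or vehicle alone. The value is the measurement in the treated group divided by that in the vehicle-treated control group.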

Where [1] appears, read: endpoint: mean survival time, dose: 100.0 mg/kg/injection, schedule: Q01DX009 (ip), vehicle: saline.
Setting [2] is: endpoint: mean survival time, dose: 50.0 mg/kg/injection, schedule: Q01DX009 (ip), vehicle: saline with Tween-80.
Where [3] appears, read: endpoint: mean survival time, dose: 100.0 mg/kg/injection, schedule: Q01DX009 (ip), vehicle: saline with Tween-80.
Where [4] appears, read: endpoint: mean survival time, dose: 100.0 mg/kg/injection, schedule: Q04DX003 (ip), vehicle: saline with Tween-80.
Setting [5] is: endpoint: mean survival time, dose: 200.0 mg/kg/injection, schedule: Q04DX003 (ip), vehicle: saline with Tween-80.
Setting [6] is: endpoint: mean survival time, dose: 100.0 mg/kg/injection, schedule: Q04DX002 (ip), vehicle: saline with Tween-80.
Setting [7] is: endpoint: mean survival time, dose: 200.0 mg/kg/injection, schedule: Q04DX002 (ip), vehicle: saline with Tween-80.
Setting [8] is: endpoint: mean survival time, dose: 400.0 mg/kg/injection, schedule: Q04DX002 (ip), vehicle: saline with Tween-80.
The mark [9] stands for this setting: endpoint: mean survival time, dose: 200.0 mg/kg/injection, schedule: Q01DX009 (ip), vehicle: saline with Tween-80.
[10] abbreviates: endpoint: mean survival time, dose: 75.0 mg/kg/injection, schedule: Q01DX001 (ip), vehicle: other.
[11] abbreviates: endpoint: mean survival time, dose: 25.0 mg/kg/injection, schedule: Q04DX003 (ip), vehicle: saline with Tween-80.
Where [12] appears, read: endpoint: mean survival time, dose: 50.0 mg/kg/injection, schedule: Q04DX003 (ip), vehicle: saline with Tween-80.
[13] abbreviates: endpoint: mean survival time, dose: 25.0 mg/kg/injection, schedule: Q01DX009 (ip), vehicle: saline with Tween-80.
Where [14] appears, read: endpoint: mean survival time, dose: 100.0 mg/kg/injection, schedule: Q01DX001 (ip), vehicle: saline.
Setting [15] is: endpoint: mean survival time, dose: 200.0 mg/kg/injection, schedule: Q01DX001 (ip), vehicle: saline.
Where [16] appears, read: endpoint: mean survival time, dose: 400.0 mg/kg/injection, schedule: Q01DX001 (ip), vehicle: saline.
Where [17] appears, read: endpoint: mean survival time, dose: 400.0 mg/kg/injection, schedule: Q04DX003 (ip), vehicle: saline with Tween-80.
[18] abbreviates: endpoint: mean survival time, dose: 100.0 mg/kg/injection, schedule: Q01DX001 (ip), vehicle: saline with Tween-80.
Setting [19] is: endpoint: mean survival time, dose: 200.0 mg/kg/injection, schedule: Q01DX001 (ip), vehicle: saline with Tween-80.

Turning to `NC(N)=NC(N)=Nc1ccc(C(=O)O)c(O)c1`, the T/C under setting [1] was 106 % of control; the T/C (endpoint: mean survival time, dose: 200.0 mg/kg/injection, schedule: Q01DX009 (ip), vehicle: saline) was 95 % of control; the T/C (endpoint: mean survival time, dose: 400.0 mg/kg/injection, schedule: Q01DX009 (ip), vehicle: saline) was 95 % of control.
Turning to `CN(C)S(=O)(=O)c1ccccc1C1(O)c2ccccc2-c2ccccc21`, the T/C under setting [2] was 87 % of control, the T/C under setting [3] was 87 % of control, the T/C under setting [4] is 93 % of control and the T/C under setting [5] is 86 % of control.
Consider `O=S(=O)(CCCCCl)Nc1ccccn1`, for which the T/C runs as follows: under setting [6], 91 % of control; under setting [7], 94 % of control; under setting [8], 109 % of control.
For the compound `COc1ccc(C(Br)C(C)Br)cc1` (stereo not given), the T/C by setting is: under setting [2], 97 % of control; under setting [3], 94 % of control; under setting [4], 98 % of control; under setting [9], 97 % of control; under setting [5], 98 % of control.
`CCN(CC)CCOC(=O)C(c1ccccc1)C(C)(O)CC` (stereo not given): the T/C is 101 % of control (endpoint: mean survival time, dose: 25.0 mg/kg/injection, schedule: Q01DX009 (ip), vehicle: saline); 87 % of control (endpoint: mean survival time, dose: 50.0 mg/kg/injection, schedule: Q01DX009 (ip), vehicle: saline); 104 % of control under setting [1]; 88 % of control (endpoint: mean survival time, dose: 100.0 mg/kg/injection, schedule: Q04DX003 (ip), vehicle: saline).
For the compound `CCCCCCCCCCCCCCCC1=NC(C)(C)CN1C(C)C`, the T/C is, setting by setting: (endpoint: mean survival time, dose: 1.25 mg/kg/injection, schedule: Q01DX009 (ip), vehicle: saline with Tween-80) 95 % of control; (endpoint: mean survival time, dose: 2.5 mg/kg/injection, schedule: Q01DX009 (ip), vehicle: saline with Tween-80) 102 % of control; (endpoint: mean survival time, dose: 5.0 mg/kg/injection, schedule: Q01DX009 (ip), vehicle: saline with Tween-80) 98 % of control.
With `COc1ccc2c(C)cc(C)nc2n1`, the T/C by setting is: under setting [10], 95 % of control; (endpoint: mean survival time, dose: 150.0 mg/kg/injection, schedule: Q01DX001 (ip), vehicle: other) 104 % of control; (endpoint: mean survival time, dose: 300.0 mg/kg/injection, schedule: Q01DX001 (ip), vehicle: other) 104 % of control.
Consider `COc1ccc(C(OCC2OC(n3cc(C)c(=O)[nH]c3=O)CC2OP(=O)(O)OCC2OC(n3cc(C)c(=O)[nH]c3=O)CC2OP(=O)(O)OCC2OC(n3cc(C)c(=O)[nH]c3=O)CC2OP(=O)(O)OCC2OC(n3cc(C)c(=O)[nH]c3=O)CC2OP(=O)(O)OCC2OC(n3ccc(N)nc3=O)C(O)C2O)(c2ccccc2)c2ccccc2)cc1` (stereo not given), for which the T/C was 108 % of control (endpoint: median survival time, dose: 25.0 mg/kg/injection, schedule: Q01DX005 (ip), vehicle: saline); 122 % of control (endpoint: median survival time, dose: 50.0 mg/kg/injection, schedule: Q01DX005 (ip), vehicle: saline); 162 % of control (endpoint: median survival time, dose: 400.0 mg/kg/injection, schedule: Q01DX005 (ip), vehicle: saline).
Turning to `OC1c2ccccc2CCc2ccccc21`, the T/C under setting [11] was 97 % of control, the T/C under setting [12] is 103 % of control and the T/C under setting [4] was 101 % of control.
With `CCOC(=O)c1oc(C)nc1C`, the T/C is 90 % of control (endpoint: mean survival time, dose: 12.5 mg/kg/injection, schedule: Q01DX001 (ip), vehicle: Klucel (hydroxypropylcellulose) (HPC)); 104 % of control (endpoint: mean survival time, dose: 25.0 mg/kg/injection, schedule: Q01DX001 (ip), vehicle: Klucel (hydroxypropylcellulose) (HPC)); 98 % of control (endpoint: mean survival time, dose: 50.0 mg/kg/injection, schedule: Q01DX001 (ip), vehicle: Klucel (hydroxypropylcellulose) (HPC)); 101 % of control (endpoint: mean survival time, dose: 100.0 mg/kg/injection, schedule: Q01DX001 (ip), vehicle: Klucel (hydroxypropylcellulose) (HPC)); 98 % of control (endpoint: mean survival time, dose: 200.0 mg/kg/injection, schedule: Q01DX001 (ip), vehicle: Klucel (hydroxypropylcellulose) (HPC)).
With `COC1OC2COC(c3ccccc3)OC2C(O)C1N` (stereo not given), the T/C reads like this: under setting [13], 96 % of control; under setting [2], 100 % of control; under setting [3], 103 % of control.
On to `c1ccc2c(-c3nnn4ccccc34)cccc2c1`, for which the T/C reads like this: under setting [14], 89 % of control; under setting [15], 106 % of control; under setting [16], 97 % of control.
For `O=C(O)C1CCC=CC1c1ccccc1` (stereo not given), the T/C by setting is: under setting [6], 95 % of control; under setting [7], 102 % of control; under setting [8], 91 % of control.
In the case of `CC1CC(=O)C2=C(C1)NC(=O)CC2` (stereo not given), the T/C by setting is: under setting [4], 90 % of control; under setting [5], 96 % of control; under setting [17], 101 % of control.
On to `CC/C(=C/c1ccc(OC)cc1)[N+](=O)[O-]`, for which the T/C (endpoint: mean survival time, dose: 12.5 mg/kg/injection, schedule: Q01DX009 (ip), vehicle: Klucel (hydroxypropylcellulose) (HPC)) is 113 % of control; the T/C (endpoint: mean survival time, dose: 25.0 mg/kg/injection, schedule: Q01DX009 (ip), vehicle: Klucel (hydroxypropylcellulose) (HPC)) was 102 % of control; the T/C (endpoint: mean survival time, dose: 50.0 mg/kg/injection, schedule: Q01DX009 (ip), vehicle: Klucel (hydroxypropylcellulose) (HPC)) is 94 % of control.
With `CCOC(=O)c1ccc(NC(=O)Nc2ccc(Nc3ccccc3)cc2)cc1`, the T/C is 96 % of control under setting [11]; 96 % of control and 102 % of control under setting [2]; 91 % of control under setting [12]; 100 % of control under setting [18]; 96 % of control and 102 % of control under setting [3]; 86 % of control and 97 % of control under setting [6]. The T/C under setting [4] is 92 % of control; the T/C under setting [19] was 94 % of control; the T/C under setting [9] is 95 % of control and 98 % of control; the T/C under setting [7] was 87 % of control and 91 % of control; the T/C (endpoint: mean survival time, dose: 400.0 mg/kg/injection, schedule: Q01DX001 (ip), vehicle: saline with Tween-80) was 103 % of control; the T/C under setting [8] was 87 % of control.
Regarding `C[N+](C)(C)CCCNC(=O)Nc1ccc(Cl)cc1`, the T/C is, setting by setting: (endpoint: mean survival time, dose: 6.25 mg/kg/injection, schedule: Q04DX002 (ip), vehicle: saline) 106 % of control; (endpoint: mean survival time, dose: 25.0 mg/kg/injection, schedule: Q04DX002 (ip), vehicle: saline) 100 % of control.
In the case of `CSc1cc(C)c(O)c(C)c1`, the T/C is, setting by setting: under setting [4], 100 % of control; under setting [5], 104 % of control; under setting [17], 102 % of control.
Regarding `C/C(=N/O)c1ccc2c(c1)C(C)c1ccccc1-2` (stereo not given), the T/C under setting [14] is 112 % of control, the T/C under setting [15] was 110 % of control and the T/C under setting [16] is 104 % of control.
In the case of `COc1cc(OC)c(NC(=O)ON2C(=O)c3ccccc3C2=O)cc1Cl`, the T/C is, setting by setting: (endpoint: mean survival time, dose: 0.19 mg/kg/injection, schedule: Q01DX009 (ip), vehicle: saline with Tween-80) 97 % of control; (endpoint: mean survival time, dose: 0.39 mg/kg/injection, schedule: Q01DX009 (ip), vehicle: saline with Tween-80) 94 % of control; (endpoint: mean survival time, dose: 0.78 mg/kg/injection, schedule: Q01DX009 (ip), vehicle: saline with Tween-80) 100 % of control; (endpoint: mean survival time, dose: 1.56 mg/kg/injection, schedule: Q01DX009 (ip), vehicle: saline with Tween-80) 97 % of control; (endpoint: mean survival time, dose: 3.12 mg/kg/injection, schedule: Q01DX009 (ip), vehicle: saline with Tween-80) 116 % of control and 96 % of control; (endpoint: mean survival time, dose: 6.25 mg/kg/injection, schedule: Q01DX009 (ip), vehicle: saline with Tween-80) 100 % of control. Further, the T/C is, setting by setting: (endpoint: mean survival time, dose: 12.5 mg/kg/injection, schedule: Q01DX009 (ip), vehicle: saline with Tween-80) 103 % of control; under setting [13], 103 % of control; under setting [2], 101 % of control; under setting [3], 103 % of control.
With `Nc1nc2ncc(CNc3ccc(C(=O)NC(CCC(=O)O)C(=O)O)cn3)nc2c(=O)[nH]1` (stereo not given), under setting [10], the T/C is 102 % of control.
`CC1CCC(=O)C2(C)CC3OC(=O)C(C)C3C=C12` (stereo not given): the T/C was 94 % of control under setting [4], 93 % of control under setting [5] and 86 % of control under setting [17].
Regarding `CSc1ncc(N=C=O)c(=O)[nH]1`, the T/C under setting [18] was 94 % of control and the T/C under setting [19] was 94 % of control.
As to `CCCCCCCCC1SC1CCCCCCCC(=O)OCCOCCOCC` (stereo not given), the T/C (endpoint: mean survival time, dose: 100.0 mg/kg/injection, schedule: Q04DX003 (ip), vehicle: Klucel (hydroxypropylcellulose) (HPC)) was 104 % of control; the T/C (endpoint: mean survival time, dose: 200.0 mg/kg/injection, schedule: Q04DX003 (ip), vehicle: Klucel (hydroxypropylcellulose) (HPC)) is 104 % of control; the T/C (endpoint: mean survival time, dose: 400.0 mg/kg/injection, schedule: Q04DX003 (ip), vehicle: Klucel (hydroxypropylcellulose) (HPC)) is 102 % of control.
